US20110105326A1, “Method for Enhancing the Rainfastness of Glyphosate” (BASF SE, priority 2008, published 2011)

Tests used:
Format in all cases: in vivo
[1] = system: Ipomoea grandifolia (IPOGR); assay: herbicidal action with/without simulated rainfall after treatment, Ipomoea grandifolia; conditions: Example 10, flumioxazin 60 g/ha, glyphosate 1080 g/ha, 0.5% v/v Dash in Flumioxazin and mixture
Method: (§1) The enhancement of the rainfastness of glyphosate was determined via the herbicidal activity of the mixture comprising glyphosate and the respective rainfastness enhancing herbicidal component B as well as of the single herbicidal components in relation to simulated rainfall at different time intervals.
(§2) The evaluation of the damage caused by the method and the compositions the according to the present invention and the single herbicidal components was carried out using a scale from 0 to 100%, compared to the untreated control plots. Here, 0 means no damage and 100 means complete destruction of the plants of a respective weed or crop species.
(§3) The application was performed with a fixed spayer system with air pressurization and with a tank spray volume of two liters. The speed of the spray device over the plants was adjusted for a spray volume of 200 I/ha. The spray device was a spray barr with four nozzles from the type Teejet XR 11002VS with a space of 50 cm between each nozzle.
(§4) The application was performed at a weed stage of 6 to 8 leaves. After the application of the formulated herbicides the leaves were washed through rain of 20 mm using a fixed rain simulator system at following time interval: 15 min, 30 min, 1, 2, 3, 4 and 6 hours after treatment.

[2] = system: Brachiaria decumbens (BRADE); assay: herbicidal action with/without simulated rainfall after treatment, Brachiaria decumbens; design: key: % damage vs untreated control; 0 = no damage, 100 = complete destruction
How it was run: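 Glyphosate alone, component B alone or their mixture sprayed at 200 l/ha on weeds at the 6–8 leaf stage. Simulated rain of 20 mm applied 15 min, 30 min, 1, 2, 3, 4 or 6 h after treatment. Damage scored 0–100% against untreated controls.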

[3] = system: Bidens pilosa (BIDPI); assay: herbicidal action with/without simulated rainfall after treatment, Bidens pilosa; conditions: Example 9, flumioxazin 60 g/ha, glyphosate 1080 g/ha, 0.5% v/v Dash in Flumioxazin and mixture
Method: as §1, §2, §3, §4

[4] = simulated rainfall 15 min after treatment, 1 DAA
[5] = simulated rainfall 15 min after treatment, 2 DAA
[6] = simulated rainfall 15 min after treatment, 3 DAA
[7] = simulated rainfall 15 min after treatment, 7 DAA
[8] = simulated rainfall 2 hours after treatment, 1 DAA
[9] = simulated rainfall 2 hours after treatment, 2 DAA
[10] = simulated rainfall 2 hours after treatment, 3 DAA
[11] = simulated rainfall 2 hours after treatment, 7 DAA
[12] = without simulated rainfall, 1 DAA
[13] = without simulated rainfall, 2 DAA
[14] = without simulated rainfall, 3 DAA
[15] = without simulated rainfall, 7 DAA

C#CCN1C(=O)COc2cc(F)c(N3C(=O)C4=C(CCCC4)C3=O)cc21 [Flumioxazin, flumioxazin]
herbicidal action against IPOGR [1, 4]: 20.33% | herbicidal action against IPOGR [1, 5]: 75% | herbicidal action against IPOGR [1, 6]: 82.33% | herbicidal action against IPOGR [1, 7]: 98.33% | herbicidal action against IPOGR ([1]; simulated rainfall 15 min after treatment, 14 DAA): 90% | herbicidal action against IPOGR [1, 8]: 24.66% | herbicidal action against IPOGR [1, 9]: 80% | herbicidal action against IPOGR [1, 10]: 94.33% | herbicidal action against IPOGR [1, 11]: 99.66% | herbicidal action against IPOGR ([1]; simulated rainfall 2 hours after treatment, 14 DAA): 100% | herbicidal action against IPOGR [1, 12]: 19.33% | herbicidal action against IPOGR [1, 13]: 93.66% | herbicidal action against IPOGR [1, 14]: 98% | herbicidal action against IPOGR [1, 15]: 98.66% | herbicidal action against IPOGR ([1]; without simulated rainfall, 14 DAA): 97.66% | herbicidal action against BRADE ([2]; Example 11, simulated rainfall 15 min after treatment, 1 DAA, flumioxazin 60 g/ha, glyphosate 1080 g/ha, 0.5% v/v Dash in Flumioxazin and mixture): 28.33% | herbicidal action against BRADE ([2]; Example 11, simulated rainfall 15 min after treatment, 2 DAA, flumioxazin 60 g/ha, glyphosate 1080 g/ha, 0.5% v/v Dash in Flumioxazin and mixture): 64.66% | herbicidal action against BRADE ([2]; Example 11, simulated rainfall 15 min after treatment, 3 DAA, flumioxazin 60 g/ha, glyphosate 1080 g/ha, 0.5% v/v Dash in Flumioxazin and mixture): 80% | herbicidal action against BRADE ([2]; Example 11, simulated rainfall 15 min after treatment, 7 DAA, flumioxazin 60 g/ha, glyphosate 1080 g/ha, 0.5% v/v Dash in Flumioxazin and mixture): 82.33% | herbicidal action against BRADE ([2]; Example 11, simulated rainfall 30 min after treatment, 1 DAA, flumioxazin 60 g/ha, glyphosate 1080 g/ha, 0.5% v/v Dash in Flumioxazin and mixture): 22.33% | herbicidal action against BRADE ([2]; Example 11, simulated rainfall 30 min after treatment, 2 DAA, flumioxazin 60 g/ha, glyphosate 1080 g/ha, 0.5% v/v Dash in Flumioxazin and mixture): 53.66% | herbicidal action against BRADE ([2]; Example 11, simulated rainfall 30 min after treatment, 3 DAA, flumioxazin 60 g/ha, glyphosate 1080 g/ha, 0.5% v/v Dash in Flumioxazin and mixture): 76% | herbicidal action against BRADE ([2]; Example 11, simulated rainfall 30 min after treatment, 7 DAA, flumioxazin 60 g/ha, glyphosate 1080 g/ha, 0.5% v/v Dash in Flumioxazin and mixture): 76.66% | herbicidal action against BRADE ([2]; Example 11, without simulated rainfall, 1 DAA, flumioxazin 60 g/ha, glyphosate 1080 g/ha, 0.5% v/v Dash in Flumioxazin and mixture): 14.66% | herbicidal action against BRADE ([2]; Example 11, without simulated rainfall, 2 DAA, flumioxazin 60 g/ha, glyphosate 1080 g/ha, 0.5% v/v Dash in Flumioxazin and mixture): 41% | herbicidal action against BRADE ([2]; Example 11, without simulated rainfall, 3 DAA, flumioxazin 60 g/ha, glyphosate 1080 g/ha, 0.5% v/v Dash in Flumioxazin and mixture): 42.66% | herbicidal action against BRADE ([2]; Example 11, without simulated rainfall, 7 DAA, flumioxazin 60 g/ha, glyphosate 1080 g/ha, 0.5% v/v Dash in Flumioxazin and mixture): 51% | herbicidal action against BRADE ([2]; simulated rainfall 2 hours after treatment, 1 DAA, Example 11.4): 16.33 | herbicidal action against BRADE ([2]; simulated rainfall 2 hours after treatment, 2 DAA, Example 11.4): 50.66 | herbicidal action against BRADE ([2]; simulated rainfall 2 hours after treatment, 3 DAA, Example 11.4): 65 | herbicidal action against BRADE ([2]; simulated rainfall 2 hours after treatment, 7 DAA, Example 11.4): 80 | herbicidal action against BRADE ([2]; simulated rainfall 6 hours after treatment, 1 DAA, Example 11.5): 21.66 | herbicidal action against BRADE ([2]; simulated rainfall 6 hours after treatment, 2 DAA, Example 11.5): 44.33 | herbicidal action against BRADE ([2]; simulated rainfall 6 hours after treatment, 3 DAA, Example 11.5): 63.33 | herbicidal action against BRADE ([2]; simulated rainfall 6 hours after treatment, 7 DAA, Example 11.5): 65 | herbicidal action against BIDPI [3, 4]: 51% | herbicidal action against BIDPI [3, 5]: 59.66% | herbicidal action against BIDPI [3, 6]: 64% | herbicidal action against BIDPI [3, 7]: 69% | herbicidal action against BIDPI ([3]; simulated rainfall 30 min after treatment, 1 DAA): 63.66% | herbicidal action against BIDPI ([3]; simulated rainfall 30 min after treatment, 2 DAA): 63% | herbicidal action against BIDPI ([3]; simulated rainfall 30 min after treatment, 3 DAA): 82% | herbicidal action against BIDPI ([3]; simulated rainfall 30 min after treatment, 7 DAA): 78.33% | herbicidal action against BIDPI [3, 8]: 72.33% | herbicidal action against BIDPI [3, 9]: 86.66% | herbicidal action against BIDPI [3, 10]: 91.66% | herbicidal action against BIDPI [3, 11]: 96.66% | herbicidal action against BIDPI ([3]; simulated rainfall 6 hours after treatment, 1 DAA): 66.66% | herbicidal action against BIDPI ([3]; simulated rainfall 6 hours after treatment, 2 DAA): 84% | herbicidal action against BIDPI ([3]; simulated rainfall 6 hours after treatment, 3 DAA): 91.33% | herbicidal action against BIDPI ([3]; simulated rainfall 6 hours after treatment, 7 DAA): 92.66% | herbicidal action against BIDPI [3, 12]: 80% | herbicidal action against BIDPI [3, 13]: 92% | herbicidal action against BIDPI [3, 14]: 98% | herbicidal action against BIDPI [3, 15]: 98.66%
